# Data reported in patent US20230295197A1, “STAT5 and STAT6 Degraders and Uses Thereof” (REGENTS OF THE UNIVERSITY OF MICHICAN, priority 2022, published 2023).
# Read-outs that look alike come from different tables or passages of the source.
# Molecular target: T1, STAT6 (Homo sapiens, UniProt P42226)
# T1 construct: endogenous in cells; host or cells: MOLM-16, KU-812, SKNO1, MB231, L1236
# T1 sequence (P42226 1-847): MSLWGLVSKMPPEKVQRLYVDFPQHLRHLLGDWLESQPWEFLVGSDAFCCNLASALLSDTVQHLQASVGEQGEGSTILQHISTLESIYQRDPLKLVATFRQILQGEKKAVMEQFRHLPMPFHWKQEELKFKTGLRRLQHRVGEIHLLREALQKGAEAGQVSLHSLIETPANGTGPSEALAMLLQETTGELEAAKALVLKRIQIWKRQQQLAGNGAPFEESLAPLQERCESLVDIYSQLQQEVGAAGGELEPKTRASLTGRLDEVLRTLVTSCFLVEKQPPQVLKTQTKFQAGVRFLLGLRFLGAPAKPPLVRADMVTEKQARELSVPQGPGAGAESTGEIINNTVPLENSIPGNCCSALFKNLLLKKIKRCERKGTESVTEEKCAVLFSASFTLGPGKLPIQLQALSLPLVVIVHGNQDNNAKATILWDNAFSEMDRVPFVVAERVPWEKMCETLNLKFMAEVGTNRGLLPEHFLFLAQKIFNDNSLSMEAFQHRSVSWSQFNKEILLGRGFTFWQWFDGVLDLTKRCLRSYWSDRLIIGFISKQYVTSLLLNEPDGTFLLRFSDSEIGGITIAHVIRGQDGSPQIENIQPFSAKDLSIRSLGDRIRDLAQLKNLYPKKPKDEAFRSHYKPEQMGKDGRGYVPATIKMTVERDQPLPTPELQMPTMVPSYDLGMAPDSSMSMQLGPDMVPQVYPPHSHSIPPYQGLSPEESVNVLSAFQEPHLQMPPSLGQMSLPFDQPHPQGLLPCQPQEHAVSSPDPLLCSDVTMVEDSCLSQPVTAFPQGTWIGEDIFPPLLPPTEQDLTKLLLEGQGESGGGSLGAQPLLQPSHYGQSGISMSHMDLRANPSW
# Assay: Immunoblotting (Western blot) analysis of STAT6 degradation efficiency of degraders in treated cells
# Type: cell-based
# Procedure: Evaluation of the degradation efficiency of degraders may be accomplished by immunoblotting analysis. The representative general protocol is the following:
# Cells are maintained in the appropriate culture medium with 10% FBS at 37° C. and an atmosphere of 5% CO2. Cell lines are used within three months of thawing fresh vials. Cells are lysed 1× Cell Lysis Buffer (Cell Signaling Technology, #9803), resolved by SDS-PAGE NuPAGE gel (Thermo Fisher Scientific), and transferred to a PVDF membrane (Millipore). Membranes are blocked using Odyssey TBS Blocker Buffer (LI-COR). IRDye 680RD and 800CW Dye-labeled secondary antibodies (LI-COR) are used. The washed membranes are scanned using Odyssey CLx imager (LI-COR). The intensity of Western blot signaling is quantitated using the Odyssey software. Primary antibodies used are: STAT5 Rabbit mAb (Cell Signaling Technology, #94205), STAT6 Rabbit mAb (Cell Signaling Technology, #5397) and GAPDH mouse monoclonal antibody (Santa Cruz Biotechnology, sc-47724).
# To evaluate the degradation efficiency of degraders, immunoblotting analysis was performed. The general protocol is the following.
# About 1 million cells for each data point were treated with compounds at indicated concentrations and durations. Untreated and treated cells in cell culture medium were transferred into tubes, followed by centrifugation at 3,000 rpm and 4° C. for 6 min Supernatants were removed from tubes and radioimmunoprecipitation assay (RIPA) lysis buffer supplemented with 1% protease inhibitor cocktail (Fisher Scientific cat. PI87786) and phosphatase inhibitor (Roche cat. 04906837001) were added to tubes containing the remaining cell pellets. The tubes were then left on ice for 30 min and placed in a −80° C. freezer. Subsequently they were thawed in 37° C. water, then centrifuged at 14,000 rpm for 15 min and the cell lysates transferred to new tubes. The concentration of total proteins in each tube was calculated using the Pierce BCA protein Assay kit (cat. 23225). Based on the calculated protein concentration, cell lysates containing approximately the same amount of proteins were transferred to new tubes, then distilled water and 4× Protein Sample Loading Buffer for Western Blots (LI-COR cat. 928-40004) supplemented with 20% of mercaptoethanol (Sigma Aldrich cat. M6250) were added on ice. The cell lysates were then reduced and denatured at 95° C. for 5 min. From the tubes containing cell lysates an equal amount of protein samples (20-40 μg) was loaded into precast 8%, 10%, 4%-12%, or 4%-20% Tris-glycine gels (Novex) filled with Tris-glycine SDS running buffer. After the proteins were resolved, they were transferred onto Immobile-FL PVDF Membrane (Millipore Sigma cat. IPFL00010), using Mini Trans-Blot Electrophoretic Transfer Cell (Bio-Rad 1703930). The membranes were blocked with Intercept Blocking Buffer (LI-COR cat. 927-70001) in LI-COR Western Blot boxes for 1 h at rt. The membranes were washed with 1× Tris-buffered saline-Tween-20 (TBST, 1× solution was made from 20×TBST solution, ThermoFisher Scientific cat. 28360) for 5 min 4 times. The membranes were incubated overnight at 4° C. in Intercept Blocking Buffer supplemented with primary antibodies (normally antibody:buffer 1:1000) and Tween-20. The membranes were washed with TBST for 5 min 4 times and were incubated with Intercept Blocking Buffer supplemented with IRDye 800CE Secondary Antibodies, IRDye 680RD Secondary Antibodies (LI-COR biosciences), Tween-20, and 10% SDS solution, for 1 h at rt. The membranes were then washed with TBST for 5 min 4 times and rinsed with deionized water before drying and scanning with Odyssey Dlx Amazing System (LI-COR). The immunoblots were finally quantified by the software.
# [1] = MOLM-16 cells, class symbols, read-out: DC50 S6 MOLM-16
# [2] = L1236 cells, read-out: DC50 S6 L1236
DC50 [1] [µM],Structure (SMILES),further results
> 10,"CC(C)(C)[C@H](NC(=O)c1cc2cc(C(F)(F)P(=O)(O)O)ccc2s1)C(=O)N1Cc2cc(OCC(=O)NCC#Cc3cccc4c3C(=O)N(C3CCC(=O)NC3=O)C4=O)ccc2C[C@H]1C(=O)N1CCC[C@H](c2ccccc2)C1 (stereo partly drawn) [Compound 549, ((2-(((2S)-1-((3S)-7-(2-((3-(2-(2,6-dioxopiperidin-3-yl)-1,3-dioxoisoindolin-4-yl)prop-2-yn-1-yl)amino)-2-oxoethoxy)-3-((R)-3-phenylpiperidine-1-carbonyl)-3,4-dihydroisoquinolin-2(1H)-yl)-3,3-dimethyl-1-oxobutan-2-yl)carbamoyl)benzo[b]thiophen-5-yl)difluoromethyl)phosphonic acid]",–
> 10,"CC(C)(C)[C@H](NC(=O)c1cc2cc(C(F)(F)P(=O)(O)O)ccc2s1)C(=O)N1Cc2cc(OCC(=O)NCCCCC#Cc3ccc4c(c3)C(=O)N(C3CCC(=O)NC3=O)C4=O)ccc2C[C@H]1C(=O)N1CCO[C@H](c2ccccc2)C1 (stereo partly drawn) [Compound 542, ((2-(((2S)-1-((3S)-7-(2-((6-(2-(2,6-dioxopiperidin-3-yl)-1,3-dioxoisoindolin-5-yl)hex-5-yn-1-yl)amino)-2-oxoethoxy)-3-((R)-2-phenylmorpholine-4-carbonyl)-3,4-dihydroisoquinolin-2(1H)-yl)-3,3-dimethyl-1-oxobutan-2-yl)carbamoyl)benzo[b]thiophen-5-yl)difluoromethyl)phosphonic acid]",–

# The remaining lines, values behind:
Structure (SMILES),DC50 [1] [µM],further results
"CC(C)(C)[C@H](NC(=O)c1cc2cc(C(F)(F)P(=O)(O)O)ccc2s1)C(=O)N1Cc2cc(OCC(=O)NCCCCCCCCC#Cc3cccc4c3C(=O)N(C3CCC(=O)NC3=O)C4=O)ccc2C[C@H]1C(=O)N1CCO[C@H](c2ccccc2)C1 (stereo partly drawn) [Compound 545, ((2-(((2S)-1-((3S)-7-(2-((10-(2-(2,6-dioxopiperidin-3-yl)-1,3-dioxoisoindolin-4-yl)dec-9-yn-1-yl)amino)-2-oxoethoxy)-3-((R)-2-phenylmorpholine-4-carbonyl)-3,4-dihydroisoquinolin-2(1H)-yl)-3,3-dimethyl-1-oxobutan-2-yl)carbamoyl)benzo[b]thiophen-5-yl)difluoromethyl)phosphonic acid]",> 10,–
"CC(C)(C)[C@H](NC(=O)c1cc2cc(C(F)(F)P(=O)(O)O)ccc2s1)C(=O)N1C[C@H](OCCCCCC(=O)N2Cc3cc4c(cc3C2)C(=O)N(C2CCC(=O)NC2=O)C4)C[C@H]1C(=O)N1CCO[C@H](c2ccccc2)C1 (stereo partly drawn) [Compound 592, ((2-(((2S)-1-((2S,4R)-4-((6-(6-(2,6-dioxopiperidin-3-yl)-5-oxo-3,5,6,7-tetrahydropyrrolo[3,4-f]isoindol-2(1H)-yl)-6-oxohexyl)oxy)-2-((R)-2-phenylmorpholine-4-carbonyl)pyrrolidin-1-yl)-3,3-dimethyl-1-oxobutan-2-yl)carbamoyl)benzo[b]thiophen-5-yl)difluoromethyl)phosphonic acid]",1 to 10,–
"CC(C)(C)[C@H](NC(=O)c1cc2cc(C(F)(F)P(=O)(O)O)ccc2s1)C(=O)N1CCN(C(=O)CCCCCC#Cc2ccc3c(c2)CN(C2CCC(=O)NC2=O)C3=O)C[C@H]1C(=O)N1CCO[C@H](c2ccccc2)C1 (stereo partly drawn) [Compound 596, ((2-(((2S)-1-((2S)-4-(8-(2-(2,6-dioxopiperidin-3-yl)-1-oxoisoindolin-5-yl)oct-7-ynoyl)-2-((R)-2-phenylmorpholine-4-carbonyl)piperazin-1-yl)-3,3-dimethyl-1-oxobutan-2-yl)carbamoyl)benzo[b]thiophen-5-yl)difluoromethyl)phosphonic acid]",–,"DC50 (MOLM-16 cells, numeric bound, read-out: DC50 S6 MOLM-16): > 0.3 µM"
"CC(C)(C)[C@H](NC(=O)c1cc2cc(C(F)(F)P(=O)(O)O)ccc2s1)C(=O)N1C[C@@H](NC(=O)CCCCCC#Cc2ccc3c(c2)CN(C2CCC(=O)NC2=O)C3=O)C[C@H]1C(=O)N1CCO[C@H](c2ccccc2)C1 (stereo partly drawn) [Compound 566, ((2-(((2S)-1-((2S,4S)-4-(8-(2-(2,6-dioxopiperidin-3-yl)-1-oxoisoindolin-5-yl)oct-7-ynamido)-2-((R)-2-phenylmorpholine-4-carbonyl)pyrrolidin-1-yl)-3,3-dimethyl-1-oxobutan-2-yl)carbamoyl)benzo[b]thiophen-5-yl)difluoromethyl)phosphonic acid]",> 10,DC50 [2]: > 10 µM
"CC(C)(C)[C@H](NC(=O)c1cc2cc(C(F)(F)P(=O)(O)O)ccc2s1)C(=O)N1Cc2cc(OCC(=O)NCCC#Cc3cccc4c3C(=O)N(C3CCC(=O)NC3=O)C4=O)ccc2C[C@H]1C(=O)N1CCC[C@H](c2ccccc2)C1 (stereo partly drawn) [Compound 551, ((2-(((2S)-1-((3S)-7-(2-((4-(2-(2,6-dioxopiperidin-3-yl)-1,3-dioxoisoindolin-4-yl)but-3-yn-1-yl)amino)-2-oxoethoxy)-3-((R)-3-phenylpiperidine-1-carbonyl)-3,4-dihydroisoquinolin-2(1H)-yl)-3,3-dimethyl-1-oxobutan-2-yl)carbamoyl)benzo[b]thiophen-5-yl)difluoromethyl)phosphonic acid]",> 10,–
"Cc1ncsc1-c1ccc(CNC(=O)[C@@H]2C[C@@H](O)CN2C(=O)[C@@H](NC(=O)CCCCCNC(=O)CO[C@@H]2C[C@@H](C(=O)N(C)c3ccc(Br)cc3)N(C(=O)[C@@H](NC(=O)c3cc4cc(C(F)(F)P(=O)(O)O)ccc4s3)C(C)(C)C)C2)C(C)(C)C)cc1 [Compound 417, ((2-(((S)-1-((2S,4R)-2-((4-bromophenyl)(methyl)carbamoyl)-4-(2-((6-(((S)-1-((2S,4R)-4-hydroxy-2-((4-(4-methylthiazol-5-yl)benzyl)carbamoyl)pyrrolidin-1-yl)-3,3-dimethyl-1-oxobutan-2-yl)amino)-6-oxohexyl)amino)-2-oxoethoxy)pyrrolidin-1-yl)-3,3-dimethyl-1-oxobutan-2-yl)carbamoyl)benzo[b]thiophen-5-yl)difluoromethyl)phosphonic acid]",–,"DC50 [2]: > 10 µM; DC50 (MB231 cells, read-out: DC50 S6 MB231): > 10 µM"
